Source: US10221163B2 (priority 2015, dated 2019)
Like-named read-outs stand apart in the source and are kept apart here.

Experiments:
[1] = system: Pseudomonas aeruginosa MB9798 vs MB9799; conditions: ratio MITC95 PA_9798/MITC95 PA_9799
Procedure, shortened: (§1)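 P. aeruginosa PAO1-derived IMP-1 strains, efflux+ MB9798 and efflux− MB9799, tested by standard microbroth MIC with imipenem and/or ceftazidime fixed, usually at CLSI breakpoint, plus fixed class A/C β-lactamase inhibitor against AmpC. Inhibitor titrated; concentration restoring susceptibility recorded; MB9798/MB9799 fold difference indicates efflux.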

[2] = system: Serratia marcescens expressing IMP-1 (CL5741); assay type: cell-based; conditions: for Serratia marcescens expressing IMP-1 (CL5741) MITC95: with imipenem 1 μg/ml, 95% inhibition of bacterial growth; for Serratia marcescens MITC95: IMP-1 strain CL5741, with imipenem 1 μg/ml, 95% inhibition of growth
Procedure, shortened: (§2)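 Colonies grown overnight on blood agar at 35° C were suspended in saline, diluted 1:100 into 1.1×CAMHB and dispensed. Imipenem was added to 1 μg/ml, then test compound. After 22 hours to 24 hours at 35° C, absorbance was recorded.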

[3] = system: Escherichia coli expressing NDM-1 (CLB30005, CLB30016); assay type: cell-based; conditions: with imipenem 1 μg/ml; for Escherichia coli expressing NDM-1 (CLB30016) MITC95: 95% inhibition of bacterial growth; for Escherichia coli MITC95: NDM-1 strain, 95% inhibition of growth
Procedure, shortened: as §2

[4] = system: Klebsiella pneumoniae expressing VIM-1 (IHMA599644); assay type: cell-based; conditions: for Klebsiella pneumoniae expressing VIM-1 (IHMA599644) MITC95: with imipenem 1 μg/ml, 95% inhibition of bacterial growth; for Klebsiella pneumoniae MITC95: VIM-1 strain IHMA599644, with imipenem 1 μg/ml, 95% inhibition of growth
Procedure, shortened: as §2

[5] = biological target: VIM-1 (Pseudomonas aeruginosa (strain ATCC 15692 / DSM 22644 / CIP 104116 / JCM 14847 / LMG 12228 / 1C / PRS 101 / PAO1), UniProt A0A0F7KYQ8); test: biochemical; conditions: CCF2-FA substrate, 30 pM enzyme, 2 hours at 25° C.
Procedure, shortened: (§3)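 Fluorescence assay of metallo-β-lactamase activity using CCF2-FA, a cephalosporin-linked 7-hydroxycoumarin–fluorescein substrate. Inhibitor, enzyme and substrate were incubated together for 2 hours at 25° C. IC50 came from a 4-parameter fit of inhibition versus inhibitor concentration.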

[6] = biological target: IMP-1 (Serratia marcescens, UniProt P52699); test: biochemical; assay type: biochemical; conditions: fluorescence assay, CCF2-FA substrate, 2 pM enzyme, 2 hours at 25° C.; read-out: IMP-1 IC50
Procedure, shortened: as §3

[7] = biological target: NDM-1 (Klebsiella pneumoniae, UniProt C7C422); test: biochemical; assay type: biochemical; conditions: fluorescence assay, CCF2-FA substrate, 1 pM enzyme, 2 hours at 25° C.; read-out: NDM-1 IC50
Procedure, shortened: as §3

[8] = system: Pseudomonas aeruginosa efflux+ (MB9798), IMP-1; assay type: cell-based; conditions: concentration restoring susceptibility to imipenem at 2 μg/mL in the presence of a class A, C, D serine β-lactamase inhibitor closely related to relebactam
Procedure, shortened: as §1

[9] = system: Pseudomonas aeruginosa efflux− (MB9799), IMP-1; assay type: cell-based; conditions: concentration restoring susceptibility to imipenem at 2 μg/mL in the presence of a class A, C, D serine β-lactamase inhibitor closely related to relebactam
Procedure, shortened: as §1

Chain of NDM-1 (C7C422 whole entry, looked up, species assumed): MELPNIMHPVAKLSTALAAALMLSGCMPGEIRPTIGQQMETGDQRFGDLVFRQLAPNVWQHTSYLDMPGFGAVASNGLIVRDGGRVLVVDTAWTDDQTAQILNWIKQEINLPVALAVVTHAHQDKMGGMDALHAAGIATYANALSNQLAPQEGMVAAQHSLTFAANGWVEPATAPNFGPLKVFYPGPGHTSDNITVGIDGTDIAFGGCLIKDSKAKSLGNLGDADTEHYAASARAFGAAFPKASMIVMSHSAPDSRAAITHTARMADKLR
Chain of IMP-1 (P52699 whole entry, looked up, species assumed): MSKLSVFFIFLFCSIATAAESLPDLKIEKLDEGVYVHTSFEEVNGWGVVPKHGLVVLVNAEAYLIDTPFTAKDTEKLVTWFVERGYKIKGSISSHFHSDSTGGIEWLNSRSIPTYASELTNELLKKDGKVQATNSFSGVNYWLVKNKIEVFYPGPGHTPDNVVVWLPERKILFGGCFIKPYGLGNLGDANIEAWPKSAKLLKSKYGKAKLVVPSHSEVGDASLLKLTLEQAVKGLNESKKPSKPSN

Compound | Efflux ratio [1] | Serratia marcescens expressing IMP-1 (CL5741) MITC95 [2] [µM] | Escherichia coli expressing NDM-1 (CLB30016) MITC95 [3] [µM] | Klebsiella pneumoniae expressing VIM-1 (IHMA599644) MITC95 [4] [µM] | IC50 ([5]; VIM-1 IC50, fluorescence assay) [nM] | IC50 [6] [nM] | IC50 [7] [nM] | P. aeruginosa expressing IMP-1, efflux + (MB9798) MITC95 [8] [µM] | P. aeruginosa expressing IMP-1, efflux − (MB9799) MITC95 [9] [µM] | Serratia marcescens MITC95 [2] [µM] | Escherichia coli MITC95 [3] [µM] | Klebsiella pneumoniae MITC95 [4] [µM] | IC50 ([5]; fluorescence assay, read-out: VIM-1 IC50) [nM]
CN1CC[C@@H](CNS(=O)(=O)c2ccc(-c3cccc4sc(N)nc34)c(-c3nnn[nH]3)c2S(N)(=O)=O)C1 [Example 76, 4-(2-amino-1,3-benzothiazol-4-yl)-N^1-{[(3R)-1-methylpyrrolidin-3-yl]methyl}-3-(1H-tetrazol-5-yl)benzene-1,2-disulfonamide] | 0.50 | 1.563 | 3.125 | 3.125 | 0.129 | 0.195 | 0.0285 | 0.7813 | 1.563 | – | – | – | –
Nc1nc2c(-c3ccc(S(=O)(=O)NC[C@@H]4CCCN4)c(S(N)(=O)=O)c3-c3nn[nH]n3)cccc2[nH]1 [Example 262, (S)-4-(2-amino-1H-benzo[d]imidazol-4-yl)-N1-(pyrrolidin-2-ylmethyl)-3-(2H-tetrazol-5-yl)benzene-1,2-disulfonamide] | 1.00 | – | – | – | 0.295 | 0.925 | 0.0768 | 0.7813 | 0.7813 | 0.7813 | 0.1953 | 0.7813 | –
NCc1nc2cc(-c3ccc(S(=O)(=O)N[C@@H]4CCNC4)c(S(N)(=O)=O)c3-c3nn[nH]n3)ccc2s1 [Example 275, (R)-4-(2-(aminomethyl)benzo[d]thiazol-5-yl)-N^1-(pyrrolidin-3-yl)-3-(2H-tetrazol-5-yl)benzene-1,2-disulfonamide] | 1.00 | – | – | – | 0.0902 | 0.171 | 0.0633 | 0.7813 | 0.7813 | 0.7813 | 0.7813 | 1.563 | –
NCCn1nc2cccc(-c3ccc(S(=O)(=O)N[C@@H]4CCNC4)c(S(N)(=O)=O)c3-c3nn[nH]n3)c2n1 [Example 279, (R)-4-(2-(2-aminoethyl)-2H-benzo[d][1,2,3]triazol-4-yl)-N1-(pyrrolidin-3-yl)-3-(2H-tetrazol-5-yl)benzene-1,2-disulfonamide] | 1.00 | – | – | – | 0.133 | 3.03 | 0.232 | 0.7813 | 0.7813 | 0.7813 | 0.7813 | 0.7813 | –
CN(C)C1CN(S(=O)(=O)c2ccc(-c3cccc4sc(N)nc34)c(-c3nnn[nH]3)c2S(N)(=O)=O)C1 [Example 39, 3-(2-amino-1,3-benzothiazol-4-yl)-6-{[3-(dimethylamino)azetidin-1-yl]sulfonyl}-2-(1H-tetrazol-5-yl)benzenesulfonamide] | 16.00 | 6.25 | 12.5 | 12.5 | – | 0.878 | 0.506 | 50 | 3.125 | – | – | – | 0.908
